The text below walks through data of patent US20260193250A1, “TOLL-LIKE RECEPTOR 7 AGONISTS AS IMMUNE-STIMULATORS TO ELICIT THE INNATE ANTITUMOR IMMUNITY” (Merck Patent GmbH, priority 2022, published 2026).

For one assay, the target named is T1, hTLR7 (Homo sapiens, UniProt Q9NYK1).
T1 construct: host or cells: HEK-Blue hTLR7 (HEK293-derived SEAP reporter cells)
T1 sequence (Q9NYK1 27-1049): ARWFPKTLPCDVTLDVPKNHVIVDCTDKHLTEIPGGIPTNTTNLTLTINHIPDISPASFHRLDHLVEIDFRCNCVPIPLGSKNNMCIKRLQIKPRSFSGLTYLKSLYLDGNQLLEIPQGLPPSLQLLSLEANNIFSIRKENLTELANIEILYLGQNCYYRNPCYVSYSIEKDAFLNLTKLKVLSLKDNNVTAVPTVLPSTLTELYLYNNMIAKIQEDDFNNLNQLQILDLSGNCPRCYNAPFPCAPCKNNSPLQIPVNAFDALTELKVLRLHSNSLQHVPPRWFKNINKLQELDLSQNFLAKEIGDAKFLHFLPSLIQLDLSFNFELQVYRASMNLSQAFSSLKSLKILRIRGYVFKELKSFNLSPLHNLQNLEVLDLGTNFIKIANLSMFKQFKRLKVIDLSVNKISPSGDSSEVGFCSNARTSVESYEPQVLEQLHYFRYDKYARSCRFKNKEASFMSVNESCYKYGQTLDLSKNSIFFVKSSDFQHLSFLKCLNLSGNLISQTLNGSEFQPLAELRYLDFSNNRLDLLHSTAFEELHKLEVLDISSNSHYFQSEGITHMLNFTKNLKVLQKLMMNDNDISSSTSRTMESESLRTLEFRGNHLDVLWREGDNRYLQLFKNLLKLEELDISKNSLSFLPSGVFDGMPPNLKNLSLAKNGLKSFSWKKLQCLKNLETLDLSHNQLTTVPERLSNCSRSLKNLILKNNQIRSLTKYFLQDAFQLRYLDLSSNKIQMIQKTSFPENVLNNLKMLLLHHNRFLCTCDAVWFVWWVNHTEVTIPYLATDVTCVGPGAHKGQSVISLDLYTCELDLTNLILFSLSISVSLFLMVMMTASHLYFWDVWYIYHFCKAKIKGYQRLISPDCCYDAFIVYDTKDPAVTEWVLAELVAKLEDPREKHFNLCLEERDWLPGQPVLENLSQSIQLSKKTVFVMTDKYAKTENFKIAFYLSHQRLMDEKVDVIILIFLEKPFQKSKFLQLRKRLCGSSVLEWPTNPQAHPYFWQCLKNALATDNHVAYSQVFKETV
Description: TLR7 reporter assay in HEK-Blue cells (SEAP, Quanti-Blue). Conditions: 24 hours incubation, SEAP absorbance at 620 nm. It is filed as cell-based. As to the method:
(§1) HEK-Blue™ TLR7 and TLR8 cell lines were obtained from InvivoGen (San Diego, CA, USA). HEK-Blue cells were cultured in DMEM medium hi glucose (Gibco-10569010) supplemented with 10% HI-FBS (Aus origin) (Gibco-10100-147), 1% penicillin/streptomycin (Gibco-15140-122-100 ml) as per manufacturer's recommendation. In addition, specific antibiotic mixtures were added to the culture. 100 μg/ml Zeocin (11006-33-0), 10 μg/ml Blasticidin (ant-bl-05), 50 μg/ml Normocin (ANT-NR-1-500 MG) for HEK-Blue™ hTLR7 and 100 μg/ml Zeocin, 30 μg/ml Blasticidin, 50 μg/ml Normocin for HEK-Blue™ hTLR8 cells (all from InvivoGen).
(§2) All the compounds were prepared in 100% DMSO (Sigma-D2650). The compounds were serially diluted in 100% DMSO (3 fold) up to 10 point dose response curve starting with 30 μM; final concentration of DMSO in the plate was 0.3%. Resiquimod and TL8-506 (InvivoGen-tlrl-t18506) were used as controls. 0.3% DMSO and 10 μM Resiquimod were used as min and max respectively, and % activation was calculated using following formula:
(§3) % Activation: {100−(max absorbance−absorbance)/(max absorbance−min absorbance)}×100.
(§4) For stimulation with TLR7/8 agonists, cells were resuspended in complete media and 40 μl of cell suspension (10,000 cells/well) was seeded on day 1 in 384 well assay plate (Thermo Scientific™ Nunc-164688) having pre-dispensed compounds with Echo Liquid handler. The plate was spun at 100 g for 1 min to settle down the cells and incubated at 37° C. with 5% CO2 for 24 hours. For measuring production of SEAP after 24 hrs of incubation, 10 μl of Quanti-Blue™ solution (InvivoGen rep-qbs2) prepared according to manufacturer's instructions was added in dark to the assay plate and incubated at 37° C. with 5% CO2 for 30 min. Post incubation, the absorbance was measured at 620 nm in Tecan spark (Spark control Magellan). EC50 were determined using Graph Pad Prism Statistical software (Version 7.05), with individual data points represent the absorbance values of duplicates.

The target of another assay is T2, hTLR8 (Homo sapiens, UniProt Q9NR97).
T2 construct: host or cells: HEK-Blue hTLR8 (HEK293-derived SEAP reporter cells)
T2 sequence (Q9NR97 27-1041): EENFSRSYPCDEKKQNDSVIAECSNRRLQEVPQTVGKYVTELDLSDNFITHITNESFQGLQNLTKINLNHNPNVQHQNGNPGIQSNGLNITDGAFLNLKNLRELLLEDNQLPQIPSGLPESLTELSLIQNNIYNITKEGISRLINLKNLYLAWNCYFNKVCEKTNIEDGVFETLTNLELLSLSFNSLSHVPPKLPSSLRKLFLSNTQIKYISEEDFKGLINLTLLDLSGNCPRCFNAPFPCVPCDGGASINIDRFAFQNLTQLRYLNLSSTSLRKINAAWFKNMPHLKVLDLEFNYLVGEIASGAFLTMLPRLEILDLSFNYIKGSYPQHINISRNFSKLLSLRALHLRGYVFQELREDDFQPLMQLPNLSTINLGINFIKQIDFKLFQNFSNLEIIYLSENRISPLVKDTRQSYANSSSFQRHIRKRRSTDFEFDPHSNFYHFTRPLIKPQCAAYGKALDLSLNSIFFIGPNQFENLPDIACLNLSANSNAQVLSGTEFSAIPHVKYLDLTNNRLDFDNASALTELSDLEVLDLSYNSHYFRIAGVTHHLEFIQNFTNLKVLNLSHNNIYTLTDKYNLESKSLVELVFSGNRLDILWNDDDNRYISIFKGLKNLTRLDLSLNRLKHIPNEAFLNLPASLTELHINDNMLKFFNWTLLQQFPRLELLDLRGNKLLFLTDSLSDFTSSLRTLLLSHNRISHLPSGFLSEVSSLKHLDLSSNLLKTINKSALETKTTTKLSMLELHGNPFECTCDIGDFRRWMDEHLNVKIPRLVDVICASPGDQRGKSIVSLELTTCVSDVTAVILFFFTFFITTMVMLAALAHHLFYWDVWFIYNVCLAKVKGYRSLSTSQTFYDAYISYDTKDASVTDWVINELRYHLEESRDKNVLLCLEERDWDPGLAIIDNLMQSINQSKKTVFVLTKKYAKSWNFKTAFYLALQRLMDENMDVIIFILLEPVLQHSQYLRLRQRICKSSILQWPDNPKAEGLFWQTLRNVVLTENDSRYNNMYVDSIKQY
Description: TLR8 reporter assay in HEK-Blue cells (SEAP, Quanti-Blue). Conditions: 24 hours incubation, SEAP absorbance at 620 nm. The format is cell-based. As to the method:
as §1, §2, §3, §4

Some results are limits rather than exact numbers.

Turning to `CCOCc1nc2c(N)nc3ccccc3c2n1CC(C)(C)OCCN1CCN(C)CC1` [Example 1], the values for the half-maximal effective concentration (EC50) at hTLR7 and at hTLR8 were below 0.01 µM and 1 to 10 µM, respectively.
`CCOCc1nc2c(N)nc3ccccc3c2n1CC(C)(C)OCCCCCCN1CCN(C)CC1` [Example 5]: the concentration giving a half-maximal response (EC50) on hTLR7 is below 0.01 µM; at hTLR8, 0.1 to 1 µM.
The corresponding values for `CCOCc1nc2c(N)nc3ccccc3c2n1CC(C)(C)OCCCCO` [Example 6] are 0.01 to 0.1 µM and 1 to 10 µM.
Regarding `CCOCc1nc2c(N)nc3ccccc3c2n1CC(C)(C)OCCCCN1CCN(CCO)CC1` [Example 12], the concentration for a half-maximal effect (EC50) at hTLR7 fell in the range of 0.01 to 0.1 µM; on hTLR8, 1 to 10 µM.
Consider `CCOCc1nc2c(N)nc3ccccc3c2n1CC(C)(C)OCCCC(=O)N1CCN(C)CC1` [Example 15], for which the results for the EC50 at hTLR7 and on hTLR8 were 0.01 to 0.1 µM and 1 to 10 µM, respectively.
The corresponding values for `CCOCc1nc2c(N)nc3ccccc3c2n1CC(C)(C)OCCNC(=O)CN1CCN(C)CC1` [Example 16] are 0.1 to 1 µM and 1 to 10 µM.
The corresponding values for `CCOCc1nc2c(N)nc3ccccc3c2n1CC(C)(C)OC(=O)CN1CCN(C)CC1` [Example 17] are 0.1 to 1 µM and 0.1 to 1 µM.
The corresponding values for `CCOCc1nc2c(N)nc3ccccc3c2n1CC(C)(C)OCCNC(=O)CO` [Example 20] are above 10 µM and above 10 µM.
With `CCOCc1nc2c(N)nc3ccccc3c2n1CC(C)(C)OCCNC(=O)C(C)(C)O` [Example 21], the concentration giving a half-maximal response (EC50) at hTLR7 was 0.1 to 1 µM; at hTLR8, above 10 µM.
Take `CCOCc1nc2c(N)nc3ccccc3c2n1CC(C)(C)OCCNC(=O)CC(=O)OC` [Example 22]: the figures for the EC50 on hTLR7 and at hTLR8 were 0.1 to 1 µM and above 10 µM, respectively.
For the molecule `CCOCc1nc2c(N)nc3ccccc3c2n1CC(C)(C)OCCNC(=O)CSC` [Example 23], the EC50 is 0.1 to 1 µM at hTLR7 and above 10 µM on hTLR8.
In the case of `CCOCc1nc2c(N)nc3ccccc3c2n1CC(C)(C)OCCNC(=O)CS(C)(=O)=O` [Example 24], the half-maximal effective concentration (EC50) at hTLR7 and on hTLR8 was 0.1 to 1 µM throughout.
Take `CCOCc1nc2c(N)nc3ccccc3c2n1CC(C)(C)OCCNC(=O)CS(=O)(=O)O` [Example 25]: the values for the 50% effective concentration (EC50) on hTLR7 and at hTLR8 were 1 to 10 µM and above 10 µM, respectively.
The corresponding values for `CCOCc1nc2c(N)nc3ccccc3c2n1CC(C)(C)OCCCCN1CCN(CCSC)CC1` [Example 26] are 0.1 to 1 µM and 1 to 10 µM.
